Read-outs that look alike come from different tables or passages of the source.
Columns and labels:
H460 cells = assay: Inhibition of H460 cancer cell proliferation (CTG, 72 h); type: cell-based; details: Homo sapiens, NCI-H460
Procedure: (§1) If not otherwise specified, IC50 values were measured by the following experimental methods:
c) The cell suspension was added to 96-well plate with 100 μL per well and 2000 cells/well of cell density.
(§2) a) Cells were plated for 24 hours, and then the compounds acted singly. 99 μL of growth medium was supplemented per well, and then 1 μL of 200× compound was added, gently shaken to ensure uniform mixing, and then placed in a 37° C., 5% CO2 incubator.
(§3) b) The cell plate was placed in the incubator for 72 hours.
(§4) b) 100 μL of CTG reagent (CelltiterGlo kit) was added to each well, the plate was placed in a rapid oscillator and shaken for 2 minutes, and then placed at room temperature for 30 minutes away from light.
c) The chemiluminescence signal value was read with Envision instrument.
(§5) The IC50 was calculated using GraphPad Prism 8 software and the IC50 (half inhibitory concentration) of the compounds was obtained using the following non-linear fitting formula: […]

H460 cancer cells = assay: H460 proliferation in the presence or absence of AKR1C3 inhibitor AST-3021 (Alamar Blue); type: cell-based, human; details: for IC50: Homo sapiens, NCI-H460, H460, 2 hours exposure; for Fold: IC50 with AST-3021 over IC50 without
Procedure: The tested compound was then added. The compound was dissolved in 100% DMSO at 200 times of the desired final test concentration. When the medicament was added, the compound was further diluted to 4 times of the desired final test concentration by using the complete medium. 50 μL of aliquots of the compound with specific concentration were added to the microwells containing 150 μL of medium, and then the final medicament concentration was obtained. […] The medicament was then washed. […] After the incubation was finished, the Alamar Blue was used to analyze and quantify the living cells.

SNU354 = assay: Cytotoxicity on hepatocellular carcinoma cell line SNU354; type: cell-based; details: for IC50: Homo sapiens, SNU-354
Procedure: as §1, §2, §3, §4, §5
(§6) Using the same experimental methods as described above, Compounds A, B and C were further tested for cytotoxicity against different hepatocellular carcinoma (HCC) cell lines SNU354, SNU886, MHCC97H and huH-1, and the results were shown in Table 2 below: […]

MHCC97H = assay: Cytotoxicity on hepatocellular carcinoma cell line MHCC97H; type: cell-based; details: for IC50: Homo sapiens
Procedure: as §1, §2, §3, §4, §5, §6

SNU886 = assay: Cytotoxicity on hepatocellular carcinoma cell line SNU886; type: cell-based; details: for IC50: SNU-886
Procedure: as §1, §2, §3, §4, §5, §6

huH-1 = assay: Cytotoxicity on hepatocellular carcinoma cell line huH-1; type: cell-based; details: for IC50: Homo sapiens, HuH-1
Procedure: as §1, §2, §3, §4, §5, §6

[1] = no AKR1C3 inhibitor, read-out: IC50 Without the addition of AST-3021

| Structure (SMILES) | IC50 (H460 cells) | IC50 (H460 cancer cells; [1]) | Fold (H460 cancer cells) | IC50 (SNU354) | IC50 (MHCC97H) | IC50 (SNU886) | IC50 (huH-1) | IC50 (H460 cancer cells; AST-3021 3 micromolar, read-out: IC50 With the addition of AST-3021) | ratio C/B (SNU354; IC50 ratio) | ratio C/B (MHCC97H; IC50 ratio) | ratio C/B (SNU886; IC50 ratio) | ratio C/B (huH-1; IC50 ratio, huH-1) |
| --- | --- | --- | --- | --- | --- | --- | --- | --- | --- | --- | --- | --- |
| O=[N+]([O-])c1ccc([C@H](OP(=O)(N2CC2)N2CC2)C(F)(F)F)cc1Oc1ccc(-c2ccc(F)cc2)c(F)c1 [B] | 8.77 nM | 3.73 nM | 513.28 | 754 nM | 242 nM | 378 nM | 258 nM |  |  |  |  |  |
| O=[N+]([O-])c1ccc([C@@H](OP(=O)(N2CC2)N2CC2)C(F)(F)F)cc1Oc1ccc(-c2ccc(F)cc2)c(F)c1 [C] | 23.4 nM | 7.66 nM | 434.76 | 1520 nM | 563 nM | 843 nM | 269 nM | 3330 nM | 2.01 | 2.32 | 2.23 | 1.49 |

Source: patent US20260159536A1, “AKR1C3-ACTIVATED DNA ALKYLATING AGENT, AND MEDICAL APPLICATION THEREOF” (ASCENTAWITS PHARMACEUTICALS, LTD., priority 2021, published 2026)
